System: patients with first-line advanced pancreatic cancer
Assay: randomized controlled Phase 2b clinical trial of TH-302 in combination with gemcitabine vs gemcitabine alone (NCT01144455)
Procedure: (§1) The clinical trial was conducted as a multi-center, randomized, controlled, dose-ranging, Phase 2b crossover clinical trial of TH-302 in combination with gemcitabine in patients with first line advanced pancreatic cancer. The primary endpoint of the trial was progression-free survival. The secondary endpoints were overall response rate, overall survival, change in CA 19-9 as well as various other efficacy and safety parameters. Tumor response was evaluated at baseline and every eight weeks using RECIST. Patients for whom monotherapy with gemcitabine is considered standard therapy were eligible for the trial. Patients were randomized equally into one of three cohorts: TH-302 at a dose of 240 mg/m^2 plus gemcitabine, TH-302 at a dose of 340 mg/m^2 plus gemcitabine, or gemcitabine alone. Patients who successfully completed six cycles of treatment without evidence of significant treatment-related toxicity or progressive disease could continue to receive treatment. If a patient experienced cancer progression on gemcitabine alone, the patient could cross over and be randomized into one of the TH-302 plus gemcitabine cohorts. The primary efficacy analysis was performed based upon 149 investigator-assessed PFS events and per protocol pooled the data from the two gemcitabine plus TH-302 dose groups in the comparison to gemcitabine alone.
In a separate Phase 2b trial, TH-302 was administered intravenously for 30 to 60 minutes on days 1, 8 and 15 of a 28 day cycle at either 240 mg/m^2 or 340 mg/m^2. Gemcitabine was dosed according to its package insert on days 1, 8 and 15 of a 28 day cycle. The 214 patient randomized controlled Phase 2b clinical trial compared the efficacy and safety of these two doses (240 mg/m^2 and 340 mg/m^2) of TH-302 in combination with gemcitabine to gemcitabine alone in patients with first-line advanced pancreatic cancer.
as §1, with “CA19-9” for “CA 19-9”, “over” for “over and be randomized”
This example is an update of the open-label, multicenter, randomized, Phase 2b study (NCT01144455) of two dose levels of TH-302 in combination with gemcitabine vs gemcitabine alone. The update was conducted in September 2012 and including a further follow-up of the data provided in Example 2.
Patients were stratified according to their disease stage (unresectable locally advanced vs distant metastases) and randomized as shown in FIG. 4.

Q: Which results are given for `Nc1ccn([C@@H]2O[C@H](CO)[C@@H](O)C2(F)F)c(=O)n1` [gemcitabine]?
A: response rate (gemcitabine alone arm, primary analysis): 12%; median progression-free survival (PFS) (gemcitabine alone, primary analysis): 3.6 months; Median time to CA 19-9 response, months (range) (human, in vivo): 1.8 (0.9-5.6) months; Patients with AEs, (%): Any rash (human, in vivo): 16%; Patients with AEs, (%): Pyrexia (human, in vivo): 23%; Patients with AEs, (%): Stomatitis (human, in vivo): 7%; Mean CA 19-9 nadir change (patients with baseline > upper limit of normal and at least one post-baseline assessment): −523 U/mL; CA 19-9 decrease >20%, (%) (percent of patients): 68%; CA 19-9 decrease >50%, (%) (percent of patients): 52%; CA 19-9 decrease >90%, (%) (percent of patients): 16%; 6-month survival rate (update September 2012): 57%; 12-month survival rate (update September 2012): 26%; Disease control (CR, PR, plus stable disease) (update September 2012): 67 % of patients; Grade 3/4 febrile neutropenia (update September 2012): 0 % of patients; Objective best (unconfirmed) response (CR plus PR) (update September 2012): 10 % of patients; Treatment-emergent Grade 3/4 neutropenia (update September 2012): 16 % of patients; Treatment-emergent Grade 3/4 thrombocytopenia (update September 2012): 10%; median PFS (update September 2012, FIG. 5A): 3.6 months; Median OS (update September 2012, FIG. 5B): 6.9 months

Q: What does the source list for `Cn1c(COP(=O)(NCCBr)NCCBr)cnc1[N+](=O)[O-]` [TH-302, (2-bromoethyl)({[(2-bromoethyl)amino][(2-nitro-3-methylimidazol-4-yl)methoxy]phosphoryl})-amine]?
A: improvement in median PFS (TH-302 treated groups (combined) vs gemcitabine alone): about 2 months; Skin and mucosal toxicities related to TH-302 (in combination with gemcitabine): dose dependent but not dose limiting; median PFS (two groups (combined) that received TH-302 at different doses plus gemcitabine, FIG. 2A): 5.6 months

From US20170232017A1, “TREATMENT OF CANCER” (Threshold Pharmaceuticals, Inc., priority 2012, published 2017)
